Assay results from US20240287172A1, “PROTEIN BINDERS TO IRHOM2 EPITOPES” (SCIRHOM GMBH, priority 2019, published 2024).

Test system: LPS-induced release of endogenous TNFα from PBMCs from patients suffering from rheumatoid arthritis
Test: ELISA-based TNFα release assay, LPS-induced, PBMCs from RA-patients
Type: cell-based
Details: PBMC; LPS 1 ng/ml, 1.5 hours; chimeric antibodies (CHO) and human IgG at 1 μg/ml; Batimastat at 10 μM
Protocol: In brief, on day 1, Nunc black MaxiSorp® 96-well plates (Thermo Fisher Scientific, USA) were coated overnight with 100 μl per well of mouse anti-human TNFα capture antibody (provided as part of the DuoSet ELISA kit) at 4 μg/ml TBS at 4° C. On day 2, the capture antibody solution was removed and MaxiSorp® plates were blocked with 300 μl per well of TBS, 1% BSA at room temperature for 3 hours. Meanwhile, 20,000 PBMC from patients suffering from rheumatoid arthritis (STEMCELL Technologies, Canada) cells in 80 μl of normal growth medium were seeded in each well of Greiner CELLSTAR V-bottom 96-well plates (Thermo Fisher Scientific, USA) and pre-incubated with 20 μl per well of standard growth medium supplemented with Batimastat (BB94, Abcam, UK) at 50 μM as positive control (for a final concentration of 10 μM in the resulting 100 μl sample volume), human IgG antibody (Thermo Fisher Scientific, USA) at 5 μg/ml as isotype control (for a final concentration of 1 μg/ml in the resulting 100 μl sample volume) or antibodies of the invention at 5 μg/ml (for a final concentration of 1 μg/ml in the resulting 100 μl sample volume) at 37° C., 5% CO2 for 30 minutes. […] Using an infinite M1000 (Tecan Group, Switzerland) microplate reader, the fluorescence of each well was collected at an excitation wavelength of 435 nm and an emission wavelength of 555 nm.

For `CNC(=O)[C@H](Cc1ccccc1)NC(=O)[C@H](CC(C)C)[C@H](CSc1cccs1)C(=O)NO` [Batimastat], which inhibition at 10 µM is on record?
The inhibition at 10 µM was 99.9%.
